In paper PMC7496096, “Functional Characterisation of ClpP Mutations Conferring Resistance to Acyldepsipeptide Antibiotics in Firmicutes” (Chembiochem, 2020):
≈ marks a conversion by molar mass, not a printed value.

Legend:
wild-type SaClpP = test: Suc-LY-AMC peptide degradation by ADEP-activated ClpP; type: biochemical, Staphylococcus aureus; conditions: 1 μM SaClpP, 100 μM Suc-LY-AMC, 32 °C, 15 min pre-incubation; Figure 6B
Procedure: Peptide and protein degradation assays: Degradation assays with the fluorogenic peptide substrate Suc‐Leu‐Tyr‐7‐amino‐4‐methylcoumarin (Suc‐LY‐AMC) were performed in either BsClpP (50 mM Tris‐HCl, 25 mM MgCl2, 200 mM KCl, 2 mM DTT, pH 8) or SaClpP activity buffer (100 mM HEPES pH 7, 100 mM NaCl) in black, flat‐bottom‐96‐well plates (Sarstedt) with a total reaction volume of 100 μl and reaction temperatures of 32 °C and 37 °C for SaClpP and BsClpP, respectively. Purified ClpP proteins (final concentrations as indicated in the respective experiments) and ADEP2 (applied in 1 μl from a DMSO stock solution) were mixed and pre‐incubated for 15 min at reaction temperatures. […] Fluorophore release upon peptide hydrolysis was read out in a Tecan Infinite M200Pro plate reader (excitation/emission: 380/460 nm) every 30–60 s for 1 h. […] SaClpP (1 μM) and ADEP2 (concentrations as indicated) were pre‐incubated at 32 °C for 15 min before initiating the reaction by addition of FITC – casein (20 μM final concentration) and fluorescence readout (excitation/emission: 485/535 nm). In both assays, enzyme velocity was determined by linear regression of the initial segment of the fluorescence‐time plot in GraphPad Prism 5. […] Decrease of fluorescence was monitored at an emission wavelength of 535 nm in white, flat‐bottom 96‐well‐plates (Greiner). […]

E. faecalis ATCC 29212 = test: microbe, parasite or virus in culture; type: cell-based, Enterococcus faecalis; conditions: broth microdilution, Mueller-Hinton broth (without cation adjustment), CLSI, inoculum 5×10^4 CFU mL^−1; wild type
Procedure: (§1) Determination of antibacterial activity: ADEP1 was purified from the culture supernatant of S. hawaiiensis NRRL 15010 as described.4 ADEPs 2, 4, 7, 9 were custom synthesised by EMC Microcollections, Tübingen, or provided by AiCuris, Wuppertal, Germany. The minimal inhibitory concentration (MIC) was determined by broth microdilution in Mueller‐Hinton broth (without cation adjustment) according to the guidelines of the Clinical Laboratory Standards Institute (CLSI).69 The inoculum was set to 5×10^4 CFU mL^−1 to allow some distance to the determined spontaneous resistance frequencies. […] All other ADEPs were used from DMSO stock solutions kept at −20 °C.

S. pneumoniae RC4 = type: cell-based, Streptococcus pneumoniae; conditions: resistant clone of S. pneumoniae G9A; ClpP A94→G (ClpP core; β4)
Procedure: as §1
(§2) Screening for ADEP‐resistant mutants and determination of resistance rates: Single colonies of wild‐type strains grown on Mueller‐Hinton agar plates overnight were suspended in sterile saline and a final inoculum of 5×10^6 cells was spread on plates supplemented with different ADEP congeners at 4× and 10× the MIC. For B. subtilis strain 3xclpP, ADEP7‐containing Mueller‐Hinton agar plates were additionally supplemented with 1 mM IPTG. Resistant colonies were counted after 24 h at 37 °C and colonies were randomly chosen for MIC determinations and sequencing. Mutations in the clpP gene of the respective isolated mutants were analysed by amplifying the clpP gene (and upstream promoter region) by PCR and sequencing of the resulting PCR amplicons (LGC genomics). Sequencing data were analysed by using SnapGene software (GSL Biotech).

E. faecium L4001 = type: cell-based, Enterococcus faecium; conditions: broth microdilution, Mueller-Hinton broth; wildtype
Procedure: as §1

S. aureus RC15 = type: cell-based, Staphylococcus aureus; conditions: resistant clone of S. aureus ATCC 29213; ClpP E52→STOP, premature stop
Procedure: as §1, §2

S. aureus RC18 = type: cell-based, Staphylococcus aureus; conditions: resistant clone of S. aureus ATCC 29213; ClpP R23→P, N-terminal gate
Procedure: as §1, §2

S. aureus RC6 = type: cell-based, Staphylococcus aureus; conditions: resistant clone of S. aureus 133; ClpP Q35→STOP, premature stop
Procedure: as §1, §2

S. aureus RC3 = type: cell-based, Staphylococcus aureus; conditions: resistant clone of S. aureus 133; ClpP A133→T, ring-ring interaction
Procedure: as §1, §2

S. aureus RC16 = type: cell-based, Staphylococcus aureus; conditions: resistant clone of S. aureus ATCC 29213; ClpP A114→T (ClpP core; β5)
Procedure: as §1, §2

With `C[C@@H]1C[C@H]2C(=O)OC[C@H](NC(=O)[C@H](Cc3cc(F)cc(F)c3)NC(=O)CCC3CCCCC3)C(=O)N3CCC[C@H]3C(=O)N3CCCC[C@H]3C(=O)N[C@@H](C)C(=O)N2C1` [ADEP2] the “concentration sufficient for full catalytic stimulation (Suc-LY-AMC degradation)” value (wild-type SaClpP) was 3 µM, the MIC (E. faecalis ATCC 29212) was at most 0.031 µg/mL and the MIC (S. pneumoniae RC4) was 16 µg/mL (≈ 20 µM). It also gave an MIC (E. faecium L4001) of at most 0.063 µg/mL, an MIC (S. aureus RC15) of over 64 µg/mL and an MIC (S. aureus RC18) of over 64 µg/mL. It also gave an MIC (S. aureus RC6) of over 64 µg/mL, an MIC (S. aureus RC3) of over 64 µg/mL and an MIC (S. aureus RC16) of over 64 µg/mL.
